Patent US20230000870A1, “METHODS OF TREATING CANCER IN BIOMARKER-IDENTIFIED PATIENTS WITH INHIBITORS OF CYCLIN-DEPENDENT KINASE 7 (CDK7)” (Syros Pharmaceuticals, Inc., priority 2019, published 2023)

How the values were obtained:
HCC70 cells = test: Inhibition of proliferation of HCC70 cells (CyQUANT Direct, 72 hour); format: cell-based, human; settings: read-out: Inhibition of Proliferation of HCC70 Cells (calculated IC50)
In short: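 Human triple-negative breast cancer cells grown in RPMI-1640 + 10% FBS at 37 °C, 5% CO2, treated with compounds from 4 μM to […] in 0.5 log steps. Proliferation over 72 h was read by CyQUANT Direct.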

CDK9/Cyclin T1 complex = CDK9/Cyclin T1 complex (Homo sapiens, UniProt P50750); test: CDK9 kinase inhibition assay (Caliper/LabChip EZ Reader); format: biochemical; settings: CDK9/Cyclin T1 8 nM, ATP 2 mM, 15 min at 27° C.
In short: (§1)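 Caliper/LabChip mobility-shift kinase assays at 27° C. CDK9/Cyclin T1 8 nM with 2 μM 5-FAM-CDK9tide, 10 mM MgCl2, 15 min; CDK12/Cyclin K 50 nM with 5-FAM-CDK9tide 2 μM, 2 mM MgCl2, 3 hr; CDK2/Cyclin E1 0.5 nM with 5-FAM-CDK7tide 2 μM, 2 mM MgCl2, 35 min; CDK7 35 min.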

A673 cells = test: Inhibition of proliferation of A673 cells (CyQUANT, 72 hour); format: cell-based, human; settings: read-out: Inhibition of Proliferation of A673 Cells (calculated IC50)
In short: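 Human Ewing's sarcoma A673 cells in DMEM + 10% FBS + 1 mM sodium pyruvate, 37 °C, 5% CO2. Compounds in 0.5-log serial dilutions, stated range 4 μM to […], for 72 h. Anti-proliferative effect read with CyQUANT per kit directions.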

[1] = molecular target: CDK7/Cyclin H/MAT1 complex (Homo sapiens, UniProt P50613); test: CDK7 kinase inhibition assay (Caliper/LabChip EZ Reader); format: biochemical; settings: CDK7/Cyclin H/MAT1 6 nM, ATP 2 mM, 35 min at 27° C.
In short: as §1

CDK2/Cyclin E1 complex = CDK2/Cyclin E1 complex (Homo sapiens, UniProt P24941); test: CDK2 kinase inhibition assay (Caliper/LabChip EZ Reader); format: biochemical; settings: CDK2/Cyclin E1 0.5 nM, ATP 2 mM, 35 min at 27° C.
In short: as §1

[2] = molecular target: T1, CDK12 (aa686-1082)/Cyclin K complex (Homo sapiens, UniProt Q9NYV4); test: CDK12 kinase inhibition assay (Caliper/LabChip EZ Reader); format: biochemical; settings: CDK12 (aa686-1082)/Cyclin K 50 nM, ATP 2 mM, 3 hr at 27° C.
T1 construct: CDK12 (aa686-1082)/Cyclin K complex
In short: as §1

T1 sequence (Q9NYV4 686-1082): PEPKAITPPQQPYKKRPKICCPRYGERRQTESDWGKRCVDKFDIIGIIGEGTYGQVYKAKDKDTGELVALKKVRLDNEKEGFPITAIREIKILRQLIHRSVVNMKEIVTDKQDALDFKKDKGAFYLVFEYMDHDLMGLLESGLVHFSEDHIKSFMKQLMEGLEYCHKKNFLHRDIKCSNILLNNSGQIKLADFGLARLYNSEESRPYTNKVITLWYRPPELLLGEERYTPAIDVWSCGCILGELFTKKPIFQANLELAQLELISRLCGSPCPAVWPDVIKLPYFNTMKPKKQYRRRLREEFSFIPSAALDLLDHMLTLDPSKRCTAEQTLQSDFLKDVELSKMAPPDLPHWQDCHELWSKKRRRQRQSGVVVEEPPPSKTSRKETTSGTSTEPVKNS
T1 sequence (O75909 whole entry partner, the tested form may be a part): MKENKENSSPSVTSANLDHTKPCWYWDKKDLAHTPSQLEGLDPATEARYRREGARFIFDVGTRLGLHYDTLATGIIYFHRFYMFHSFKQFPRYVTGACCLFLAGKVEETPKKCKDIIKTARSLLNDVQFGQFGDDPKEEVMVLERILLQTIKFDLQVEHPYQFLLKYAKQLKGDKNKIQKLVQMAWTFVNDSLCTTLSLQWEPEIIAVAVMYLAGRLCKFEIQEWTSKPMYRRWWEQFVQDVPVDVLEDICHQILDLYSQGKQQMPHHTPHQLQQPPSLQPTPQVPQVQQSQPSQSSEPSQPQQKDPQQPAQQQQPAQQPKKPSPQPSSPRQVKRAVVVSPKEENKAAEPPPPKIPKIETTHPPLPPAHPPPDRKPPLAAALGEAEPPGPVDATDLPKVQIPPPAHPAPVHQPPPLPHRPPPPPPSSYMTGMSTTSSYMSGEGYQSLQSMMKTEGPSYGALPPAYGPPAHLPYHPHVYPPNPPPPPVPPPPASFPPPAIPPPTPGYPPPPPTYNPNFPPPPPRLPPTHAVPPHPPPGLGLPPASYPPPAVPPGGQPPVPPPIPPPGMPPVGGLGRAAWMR
Chain of CDK9/Cyclin T1 complex (P50750 whole entry): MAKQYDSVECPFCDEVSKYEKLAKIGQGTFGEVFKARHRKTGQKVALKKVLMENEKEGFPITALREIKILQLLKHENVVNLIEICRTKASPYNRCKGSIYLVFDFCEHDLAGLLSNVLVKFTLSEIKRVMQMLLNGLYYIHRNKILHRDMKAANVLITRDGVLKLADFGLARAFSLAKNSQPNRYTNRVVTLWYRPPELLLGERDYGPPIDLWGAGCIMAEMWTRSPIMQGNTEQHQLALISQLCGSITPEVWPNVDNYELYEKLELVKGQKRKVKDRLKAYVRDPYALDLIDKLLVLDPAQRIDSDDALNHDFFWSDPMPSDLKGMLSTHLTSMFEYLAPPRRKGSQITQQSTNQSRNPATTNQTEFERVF
Chain of CDK9/Cyclin T1 complex (O60563 whole entry partner): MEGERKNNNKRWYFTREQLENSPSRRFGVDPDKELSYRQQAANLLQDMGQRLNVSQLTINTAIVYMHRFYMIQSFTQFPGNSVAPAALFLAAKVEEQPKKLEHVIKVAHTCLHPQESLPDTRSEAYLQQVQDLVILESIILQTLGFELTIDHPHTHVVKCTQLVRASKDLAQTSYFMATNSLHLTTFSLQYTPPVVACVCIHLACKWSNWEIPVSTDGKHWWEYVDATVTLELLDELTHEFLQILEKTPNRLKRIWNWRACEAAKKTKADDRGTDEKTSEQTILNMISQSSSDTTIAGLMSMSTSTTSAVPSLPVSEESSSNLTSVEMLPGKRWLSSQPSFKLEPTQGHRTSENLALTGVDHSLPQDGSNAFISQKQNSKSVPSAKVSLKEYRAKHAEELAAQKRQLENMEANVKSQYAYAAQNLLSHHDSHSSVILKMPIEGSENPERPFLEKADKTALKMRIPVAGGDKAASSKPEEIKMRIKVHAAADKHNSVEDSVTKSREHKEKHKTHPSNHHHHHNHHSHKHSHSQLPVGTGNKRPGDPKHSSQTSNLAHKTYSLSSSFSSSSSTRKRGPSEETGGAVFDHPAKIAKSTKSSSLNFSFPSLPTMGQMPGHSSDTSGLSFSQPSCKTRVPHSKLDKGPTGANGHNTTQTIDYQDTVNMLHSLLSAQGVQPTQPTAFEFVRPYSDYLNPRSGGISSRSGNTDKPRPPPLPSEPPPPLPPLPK
Chain of CDK7/Cyclin H/MAT1 complex (P50613 whole entry): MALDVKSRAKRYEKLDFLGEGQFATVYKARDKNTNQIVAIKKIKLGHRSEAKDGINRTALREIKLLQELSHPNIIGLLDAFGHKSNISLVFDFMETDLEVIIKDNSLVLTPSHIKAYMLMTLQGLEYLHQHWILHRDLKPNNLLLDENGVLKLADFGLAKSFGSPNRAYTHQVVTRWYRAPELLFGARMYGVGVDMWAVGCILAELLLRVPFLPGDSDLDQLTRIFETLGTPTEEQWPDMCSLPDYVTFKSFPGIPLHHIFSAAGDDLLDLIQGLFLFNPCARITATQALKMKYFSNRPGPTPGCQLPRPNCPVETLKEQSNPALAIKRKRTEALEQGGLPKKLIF
Chain of CDK7/Cyclin H/MAT1 complex (P51946 whole entry partner): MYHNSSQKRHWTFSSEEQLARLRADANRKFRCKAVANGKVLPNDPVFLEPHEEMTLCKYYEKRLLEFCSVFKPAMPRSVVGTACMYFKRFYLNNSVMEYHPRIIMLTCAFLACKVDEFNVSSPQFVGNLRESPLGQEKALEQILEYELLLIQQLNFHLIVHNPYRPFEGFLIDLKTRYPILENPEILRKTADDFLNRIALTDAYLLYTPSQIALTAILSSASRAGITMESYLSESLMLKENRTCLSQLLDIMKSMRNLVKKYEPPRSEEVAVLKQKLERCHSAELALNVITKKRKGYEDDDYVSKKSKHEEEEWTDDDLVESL
Chain of CDK7/Cyclin H/MAT1 complex (P51948 whole entry partner): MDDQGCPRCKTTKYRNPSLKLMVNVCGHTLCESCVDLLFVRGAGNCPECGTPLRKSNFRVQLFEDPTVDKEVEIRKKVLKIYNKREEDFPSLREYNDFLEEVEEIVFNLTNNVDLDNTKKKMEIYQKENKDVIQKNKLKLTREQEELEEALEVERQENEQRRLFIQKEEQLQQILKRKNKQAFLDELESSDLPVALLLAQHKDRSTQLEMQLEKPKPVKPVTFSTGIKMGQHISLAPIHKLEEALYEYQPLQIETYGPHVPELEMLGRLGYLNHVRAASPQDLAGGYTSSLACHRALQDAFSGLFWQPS

Compound	IC50 (CDK9/Cyclin T1 complex)	IC50 [1]	IC50 (CDK2/Cyclin E1 complex)	IC50 [2]	IC50 (HCC70 cells)	IC50 (A673 cells)
FC(F)(F)c1cnc(NC2CNCC(c3nnc4ccccn34)C2)nc1-c1c[nH]c2ccccc12 (stereo not drawn) [Compound 267]	0.2 to 5 µM	20 to 200 nM	200 to 5000 nM	200 to 5000 nM	< 100 nM	< 20 nM
OC1CCC(c2cccc3c(-c4nc(NC5CCCNC5)ncc4C(F)(F)F)c[nH]c23)CC1 (stereo not drawn) [Compound 185]	0.2 to 5 µM	< 20 nM	20 to 200 nM	200 to 5000 nM	< 100 nM	< 20 nM
COCn1cc(-c2nc(NC3CCCNC3)ncc2C(F)(F)F)c2ccc(C#N)nc21 (stereo not drawn) [Compound 283]	≥ 5 µM	200 to 5000 nM	≥ 5000 nM	≥ 5000 nM	1000 to 5000 nM	200 to 5000 nM
CC1(O)CCN(C(=O)c2ccc3c(-c4nc(NC5CCCNC5)ncc4C(F)(F)F)c[nH]c3c2)C1 (stereo not drawn) [Compound 221]	≥ 5 µM	< 20 nM	≥ 5000 nM	≥ 5000 nM	100 to 1000 nM	200 to 5000 nM
O=C(c1ccc2c(-c3nc(NC4CCCNC4)ncc3C(F)(F)F)c[nH]c2c1)N1CCCC1 (stereo not drawn) [Compound 278]	≥ 5 µM	20 to 200 nM	200 to 5000 nM	200 to 5000 nM	100 to 1000 nM	20 to 200 nM
Fc1ccc2[nH]cc(-c3nc(NC4CCCNC4)ncc3Cl)c2c1 (stereo not drawn) [Compound 109]	0.2 to 5 µM	< 20 nM	200 to 5000 nM	20 to 200 nM	100 to 1000 nM	20 to 200 nM
N#Cc1ccc2c(-c3nc(NC4CCCNC4)ncc3Cl)c[nH]c2c1 (stereo not drawn) [Compound 161]	0.2 to 5 µM	< 20 nM	200 to 5000 nM	200 to 5000 nM	< 100 nM	< 20 nM
CC1(C)CCC(Nc2ncc(C(F)(F)F)c(-c3c[nH]c4ccccc34)n2)CN1 (stereo not drawn) [Compound 190]	0.2 to 5 µM	< 20 nM	200 to 5000 nM	200 to 5000 nM	100 to 1000 nM	< 20 nM
Cc1cccc2c(-c3nc(NC4CCCNC4)ncc3Cl)c[nH]c12 (stereo not drawn) [Compound 112]	0.2 to 5 µM	< 20 nM	200 to 5000 nM	20 to 200 nM	< 100 nM	< 20 nM
CC(C)c1cnc(NC2CCCNC2)nc1-c1c[nH]c2ccccc12 (stereo not drawn) [Compound 139]	≥ 5 µM	20 to 200 nM	≥ 5000 nM	≥ 5000 nM	1000 to 5000 nM	200 to 5000 nM
FC(F)(F)c1cnc(NC2CCCNC2)nc1-c1n[nH]c2ccccc12 (stereo not drawn) [Compound 103]	0.2 to 5 µM	< 20 nM	200 to 5000 nM	20 to 200 nM	< 100 nM	20 to 200 nM
CCc1cnc(NC2CCCNC2)nc1-c1n[nH]c2nc(C#N)ccc12 (stereo not drawn) [Compound 277]	0.2 to 5 µM	< 20 nM	200 to 5000 nM	200 to 5000 nM	100 to 1000 nM	20 to 200 nM
CCc1cnc(NC2CCCNC2)nc1-c1c[nH]c2c(F)cccc12 (stereo not drawn) [Compound 144]	0.2 to 5 µM	< 20 nM	200 to 5000 nM	200 to 5000 nM	100 to 1000 nM	20 to 200 nM
O=C1CCC(Nc2ncc(Cl)c(-c3c[nH]c4ccccc34)n2)CN1 (stereo not drawn) [Compound 159]	0.2 to 5 µM	20 to 200 nM	20 to 200 nM	200 to 5000 nM	1000 to 5000 nM	200 to 5000 nM
CCc1cnc(NC2CCCNC2)nc1-c1c[nH]c2nc(C#N)ccc12 (stereo not drawn) [Compound 287]	≥ 5 µM	< 20 nM	≥ 5000 nM	≥ 5000 nM	100 to 1000 nM	20 to 200 nM
CCc1cnc(NC2CCCNC2)nc1-c1c[nH]c2c(S(C)(=O)=O)c(C#N)ccc12 (stereo not drawn) [Compound 263]	≥ 5 µM	< 20 nM	≥ 5000 nM	≥ 5000 nM	100 to 1000 nM	20 to 200 nM
Clc1cnc(NC2CCCNC2)nc1-c1c[nH]c2ncccc12 (stereo not drawn) [Compound 118]	0.2 to 5 µM	< 20 nM	200 to 5000 nM	20 to 200 nM	< 100 nM	20 to 200 nM
Clc1cnc(NC2CCCNC2)nc1-c1cnn2ccccc12 (stereo not drawn) [Compound 104]	0.2 to 5 µM	20 to 200 nM	200 to 5000 nM	20 to 200 nM	100 to 1000 nM	20 to 200 nM
CCN1CCCC(Nc2ncc(C(F)(F)F)c(-c3c[nH]c4cc(C#N)ccc34)n2)C1 (stereo not drawn) [Compound 284]	0.2 to 5 µM	< 20 nM	200 to 5000 nM	200 to 5000 nM	100 to 1000 nM	20 to 200 nM
CC1CCNCC1Nc1ncc(C(F)(F)F)c(-c2c[nH]c3ccccc23)n1 (stereo not drawn) [Compound 285]	≥ 5 µM	200 to 5000 nM	≥ 5000 nM	≥ 5000 nM	< 100 nM	< 20 nM

Further lines, with some results ahead:

IC50 (CDK9/Cyclin T1 complex)	IC50 [1]	IC50 (CDK2/Cyclin E1 complex)	IC50 [2]	Compound	IC50 (HCC70 cells)	IC50 (A673 cells)
0.02 to 0.2 µM	< 20 nM	200 to 5000 nM	200 to 5000 nM	Cc1[nH]ncc1-c1cccc2c(-c3nc(N[C@@H]4CCCNC4)ncc3C(F)(F)F)c[nH]c12 [Compound 175]	1000 to 5000 nM	< 20 nM
0.2 to 5 µM	20 to 200 nM	200 to 5000 nM	200 to 5000 nM	N#Cc1ccc2c(-c3nc(N[C@@H]4CCCNC4)ncc3C(F)(F)F)c[nH]c2c1-c1ccnnc1 [Compound 261]	< 100 nM	< 20 nM
0.2 to 5 µM	< 20 nM	200 to 5000 nM	200 to 5000 nM	CS(=O)(=O)c1ccc2c(-c3nc(NC4CCCNC4)ncc3C(F)(F)F)c[nH]c2c1 (stereo not drawn) [Compound 199]	100 to 1000 nM	< 20 nM
0.2 to 5 µM	< 20 nM	200 to 5000 nM	200 to 5000 nM	CS(=O)(=O)c1cccc2c(-c3nc(NC4CCCNC4)ncc3C(F)(F)F)c[nH]c12 (stereo not drawn) [Compound 141]	< 100 nM	< 20 nM
0.2 to 5 µM	20 to 200 nM	200 to 5000 nM	200 to 5000 nM	FC(F)n1cc(-c2ccc3c(-c4nc(NC5CCCNC5)ncc4C(F)(F)F)c[nH]c3c2)cn1 (stereo not drawn) [Compound 290]	100 to 1000 nM	20 to 200 nM
0.2 to 5 µM	< 20 nM	200 to 5000 nM	200 to 5000 nM	CN1CCN(c2cccc3c(-c4nc(NC5CCCNC5)ncc4C(F)(F)F)c[nH]c23)C1=O (stereo not drawn) [Compound 176]	100 to 1000 nM	< 20 nM
0.2 to 5 µM	< 20 nM	200 to 5000 nM	200 to 5000 nM	CNC(=O)c1cccc2c(-c3nc(N[C@H]4CCCNC4)ncc3C(F)(F)F)c[nH]c12 [Compound 173]	100 to 1000 nM	20 to 200 nM
0.2 to 5 µM	< 20 nM	200 to 5000 nM	20 to 200 nM	FC(F)(F)c1cnc(NC2CCCNC2)nc1-c1c[nH]c2c(-c3cn[nH]c3)cccc12 (stereo not drawn) [Compound 170]	< 100 nM	< 20 nM
0.2 to 5 µM	< 20 nM	200 to 5000 nM	200 to 5000 nM	FC(F)(F)c1cnc(NC2CCCNC2)nc1-c1c[nH]c2cnc(Cl)cc12 (stereo not drawn) [Compound 165]	100 to 1000 nM	20 to 200 nM
0.2 to 5 µM	< 20 nM	20 to 200 nM	200 to 5000 nM	Fc1cnc2[nH]cc(-c3nc(NC4CCCNC4)ncc3C(F)(F)F)c2c1 (stereo not drawn) [Compound 166]	< 100 nM	< 20 nM
0.2 to 5 µM	< 20 nM	20 to 200 nM	20 to 200 nM	FC(F)(F)c1cnc(NC2CCCNC2)nc1-c1c[nH]c2c(-c3ccnnc3)cccc12 (stereo not drawn) [Compound 180]	< 100 nM	< 20 nM
0.2 to 5 µM	< 20 nM	200 to 5000 nM	200 to 5000 nM	N#CC1CCN(C(=O)c2ccc3c(-c4nc(NC5CCCNC5)ncc4C(F)(F)F)c[nH]c3c2)C1 (stereo not drawn) [Compound 292]	100 to 1000 nM	20 to 200 nM
≥ 5 µM	20 to 200 nM	≥ 5000 nM	≥ 5000 nM	Cn1cc(-c2nc(NC3CCCNC3)ncc2C(F)(F)F)c2cccc(C#N)c21 (stereo not drawn) [Compound 279]	1000 to 5000 nM	200 to 5000 nM
0.2 to 5 µM	< 20 nM	200 to 5000 nM	200 to 5000 nM	CCS(=O)(=O)c1cccc2c(-c3nc(N[C@H]4CCCNC4)ncc3C(F)(F)F)c[nH]c12 [Compound 286]	1000 to 5000 nM	200 to 5000 nM
